Assay results as given in patent publication US20230348418A1, “ISOINDOLINONE COMPOUNDS” (Monte Rosa Therapeutics, Inc., priority 2021, published 2023).
Like-named read-outs stand apart in the source and are kept apart here.

Key:
CRBN-DDB1 = CRBN-DDB1 (Homo sapiens, UniProt Q96SW2); assay: HTRF binding of compounds to CRBN
Protocol: Compound activity was monitored in a Homogenous Time-Resolved Fluorescence (HTRF) assay using 1-[5-({2-[2-(2-{[2-(2,6-dioxopiperidin-3-yl)-1,3-dioxo-2,3-dihydro-1H-isoindol-4-yl]oxy}acetamido)ethoxy]ethyl}carbamoyl)pentyl]-3,3-dimethyl-2-[(1E,3E)-5-[(2E)-1,3,3-trimethyl-5-sulfo-2,3-dihydro-1H-indol-2-ylidene]penta-1,3-dien-1-yl]-3H-indol-1-ium-5-sulfonate as a fluorescent probe. […] Compounds were stored in dry, ambient temperatures at 10 mM. A 10-point, 1:3 dilution series was prepared from 10 mM stock concentrations in Echo-compatible LDV plates. 10 nL of each compound dilution series was dispensed into assays wells using an Echo 650 (Labcyte inc. USA). […] The assay was then allowed to incubate for 30 min at ambient temperature after transferring compound. […] Analysis and IC50 values were derived using KNIME analytics (KNIME Zurich) transformation and fitting within Collaborative Drug Discovery (Collaborative Drug Discovery USA). Ki was derived from the geometric mean of the IC50 values using the Cheng-Prustoff transformation.

GSPT1 = GSPT1 (Homo sapiens, UniProt P15170+Q96SW2); assay: Immunofluorescence assay for GSPT1 degradation in CAL-51 cells (Example 10); assay type: cell-based; set-up: host or cells: CAL-51
Protocol: The representative compounds were tested in an immunofluorescence assay for their activity to degrade GSPT1. […] Compounds were stored at 10 mM DMSO stocks. […] Cells were subsequently rinsed with PBS and fixed in 10% Formalin solution (50 μl, Sigma HT5011)) for 20 mins at room temperature. […] Following three further PBS washes, 50 μL blocking buffer (1% BSA, Sigma A4503, in PBS) was added for 45 min for signal-to noise reduction. Primary antibody (human GSPT1, Sigma HPA052488) was diluted in blocking buffer (dil.1/300, 35 μL/well) and incubated with the cells overnight at 4° C. […] After three final PBS washes, samples were conserved in 100 μL PBS in the dark, until measurement. Image acquisition was performed on the Operetta High-Content Imager (Perkin-Elmer). […] For the determination of GSPT1 DC50 values, a custom algorithm implemented in the PerkinElmer image analysis software Harmony-Acapella® was developed. After user-defined setting of adjustment parameters, the analysis was run identically without human intervention for all image fields.
DAPI staining of the nuclei was used to determine the location of cells using standard nuclei detection modules. Segmentation artifacts were removed by threshold-based filters for area, roundness and intensity. The outline of the cells was determined analogously from the sum of the normalized, smoothed DAPI and Actin channel, starting from each nucleus. […] GSPT1 degradation (DC50) was calculated after normalization to controls and data import in CDD vault Database, using non-linear regression.

[1] = read-out: HTRF Class (Cereblon binding, HTRF IC50)
[2] = 6 h, read-out: IF Class (GSPT1 degradation, DC50)

Chain of CRBN-DDB1 (Q96SW2 whole entry): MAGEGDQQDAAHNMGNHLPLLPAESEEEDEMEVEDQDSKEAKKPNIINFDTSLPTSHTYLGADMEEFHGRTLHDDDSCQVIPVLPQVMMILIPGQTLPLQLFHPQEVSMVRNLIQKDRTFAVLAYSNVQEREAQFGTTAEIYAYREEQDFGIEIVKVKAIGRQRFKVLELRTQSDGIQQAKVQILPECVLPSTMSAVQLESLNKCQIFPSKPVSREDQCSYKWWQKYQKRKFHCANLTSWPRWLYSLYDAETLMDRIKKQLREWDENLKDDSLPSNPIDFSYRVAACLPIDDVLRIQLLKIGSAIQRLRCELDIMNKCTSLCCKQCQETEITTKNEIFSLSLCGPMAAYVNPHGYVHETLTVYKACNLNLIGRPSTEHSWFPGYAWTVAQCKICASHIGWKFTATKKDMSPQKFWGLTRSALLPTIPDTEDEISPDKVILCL
Chain of CRBN-DDB1 (Q16531 whole entry partner): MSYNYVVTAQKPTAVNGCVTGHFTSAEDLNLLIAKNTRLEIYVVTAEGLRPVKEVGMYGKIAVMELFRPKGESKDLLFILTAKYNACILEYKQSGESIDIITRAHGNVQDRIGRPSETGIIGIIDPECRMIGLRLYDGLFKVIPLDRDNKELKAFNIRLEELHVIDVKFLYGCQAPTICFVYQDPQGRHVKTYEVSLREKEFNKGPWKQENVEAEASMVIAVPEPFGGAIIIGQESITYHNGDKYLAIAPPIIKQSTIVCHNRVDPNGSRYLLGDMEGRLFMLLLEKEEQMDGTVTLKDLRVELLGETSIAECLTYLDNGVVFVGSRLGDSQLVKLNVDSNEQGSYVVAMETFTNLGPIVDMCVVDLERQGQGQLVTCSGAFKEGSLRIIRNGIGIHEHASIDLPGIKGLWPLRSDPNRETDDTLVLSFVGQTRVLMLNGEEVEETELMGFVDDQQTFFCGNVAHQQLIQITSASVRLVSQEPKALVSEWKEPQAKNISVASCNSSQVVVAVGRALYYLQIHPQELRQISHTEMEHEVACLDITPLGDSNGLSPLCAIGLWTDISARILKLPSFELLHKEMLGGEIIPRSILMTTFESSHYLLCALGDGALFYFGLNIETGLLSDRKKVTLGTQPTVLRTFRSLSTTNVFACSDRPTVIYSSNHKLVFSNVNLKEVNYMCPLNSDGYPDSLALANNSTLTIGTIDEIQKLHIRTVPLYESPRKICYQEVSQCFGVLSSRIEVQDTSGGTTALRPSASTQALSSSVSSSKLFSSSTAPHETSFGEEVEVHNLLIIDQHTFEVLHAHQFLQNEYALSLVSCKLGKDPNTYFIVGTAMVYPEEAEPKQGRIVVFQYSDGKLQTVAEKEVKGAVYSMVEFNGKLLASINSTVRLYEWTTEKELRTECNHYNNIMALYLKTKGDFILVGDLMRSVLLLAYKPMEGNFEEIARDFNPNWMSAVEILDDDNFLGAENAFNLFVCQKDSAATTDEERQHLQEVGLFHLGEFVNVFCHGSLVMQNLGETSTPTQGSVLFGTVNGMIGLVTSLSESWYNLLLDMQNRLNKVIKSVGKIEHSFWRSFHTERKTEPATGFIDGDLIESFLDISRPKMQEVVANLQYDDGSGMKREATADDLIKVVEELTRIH
Chain of GSPT1 (P15170 whole entry): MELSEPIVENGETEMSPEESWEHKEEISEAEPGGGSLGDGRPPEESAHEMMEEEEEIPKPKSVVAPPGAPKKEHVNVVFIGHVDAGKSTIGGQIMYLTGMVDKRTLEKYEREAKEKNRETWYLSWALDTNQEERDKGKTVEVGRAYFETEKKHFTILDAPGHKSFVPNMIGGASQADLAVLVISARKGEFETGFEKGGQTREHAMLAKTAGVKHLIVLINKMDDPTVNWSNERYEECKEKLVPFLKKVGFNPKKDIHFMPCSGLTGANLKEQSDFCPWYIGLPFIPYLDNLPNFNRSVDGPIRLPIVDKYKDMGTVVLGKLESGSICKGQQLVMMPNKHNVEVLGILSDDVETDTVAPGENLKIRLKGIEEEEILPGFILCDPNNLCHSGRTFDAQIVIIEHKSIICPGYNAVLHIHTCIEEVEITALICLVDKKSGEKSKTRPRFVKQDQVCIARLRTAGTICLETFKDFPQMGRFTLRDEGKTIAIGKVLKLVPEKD
Chain of GSPT1 (Q96SW2 whole entry): as the sequence (Q96SW2 whole entry) above
Chain of GSPT1 (Q16531 2-1140 partner limits assumed): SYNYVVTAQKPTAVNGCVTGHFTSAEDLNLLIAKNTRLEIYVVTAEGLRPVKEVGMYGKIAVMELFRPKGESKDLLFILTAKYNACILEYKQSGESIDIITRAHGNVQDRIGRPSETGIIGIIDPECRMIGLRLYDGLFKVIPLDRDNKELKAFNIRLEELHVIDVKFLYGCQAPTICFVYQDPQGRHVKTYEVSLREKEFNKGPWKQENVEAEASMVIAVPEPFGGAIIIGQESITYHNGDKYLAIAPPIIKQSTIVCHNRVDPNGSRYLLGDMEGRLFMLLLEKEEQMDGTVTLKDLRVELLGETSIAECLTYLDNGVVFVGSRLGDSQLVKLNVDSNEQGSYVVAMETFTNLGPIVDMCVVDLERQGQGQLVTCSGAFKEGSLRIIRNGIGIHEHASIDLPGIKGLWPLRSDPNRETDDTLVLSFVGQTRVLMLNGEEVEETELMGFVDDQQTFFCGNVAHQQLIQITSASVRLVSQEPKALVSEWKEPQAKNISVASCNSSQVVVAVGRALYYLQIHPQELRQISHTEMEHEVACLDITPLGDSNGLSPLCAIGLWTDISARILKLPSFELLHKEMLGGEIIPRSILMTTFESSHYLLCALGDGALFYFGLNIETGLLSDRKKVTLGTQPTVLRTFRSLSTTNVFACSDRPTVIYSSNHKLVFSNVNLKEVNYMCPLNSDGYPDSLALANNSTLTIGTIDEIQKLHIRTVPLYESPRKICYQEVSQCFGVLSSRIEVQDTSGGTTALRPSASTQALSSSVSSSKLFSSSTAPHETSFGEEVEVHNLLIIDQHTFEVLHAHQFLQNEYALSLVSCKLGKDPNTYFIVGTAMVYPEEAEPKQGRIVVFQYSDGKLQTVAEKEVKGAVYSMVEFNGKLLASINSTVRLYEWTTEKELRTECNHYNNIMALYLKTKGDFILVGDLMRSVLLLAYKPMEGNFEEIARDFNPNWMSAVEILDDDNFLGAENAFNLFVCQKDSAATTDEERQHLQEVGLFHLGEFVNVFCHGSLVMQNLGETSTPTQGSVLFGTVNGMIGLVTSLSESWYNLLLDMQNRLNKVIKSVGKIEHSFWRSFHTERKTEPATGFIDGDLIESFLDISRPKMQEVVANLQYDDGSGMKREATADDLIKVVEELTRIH

| IC50 (CRBN-DDB1; [1]) | DC50 (GSPT1; [2]) | Compound | IC50 (CRBN-DDB1) | DC50 (GSPT1; read-out: IF Class (GSPT1 degradation, DC50), 6 h) |
| --- | --- | --- | --- | --- |
| 100 to 1000 nM | 30 to 300 nM | CC(C)(C)OC(=O)C12CC(NC(=O)OCc3ccc4c(c3)C(=O)N(C3CCC(=O)NC3=O)C4)(C1)C2 (centres unmarked) [Compound 224, tert-butyl 3-((((2-(2,6-dioxopiperidin-3-yl)-3-oxoisoindolin-5-yl)methoxy)carbonyl)amino)bicyclo[1.1.1]pentane-1-carboxylate] | – | – |
| 100 to 1000 nM | > 300 nM | O=C1CCC(N2Cc3ccc(COC(=O)NC4(c5ccccc5)CC4)cc3C2=O)C(=O)N1 (centres unmarked) [Compound 171, (2-(2,6-dioxopiperidin-3-yl)-3-oxoisoindolin-5-yl)methyl (1-phenylcyclopropyl)carbamate] | – | – |
| < 100 nM | > 300 nM | O=C1CCC(N2Cc3ccc(COC(=O)N[C@H]4C[C@@H](c5ccccc5)C4)cc3C2=O)C(=O)N1 (some centres unmarked) [Compound 158, (2-(2,6-dioxopiperidin-3-yl)-3-oxoisoindolin-5-yl)methyl ((1s,3s)-3-phenylcyclobutyl)carbamate] | – | – |
| – | – | Cc1c(Cl)ccc(NC(=O)OCc2ccc3c(c2)C(=O)N(C2CCC(=O)NC2=O)C3)c1F (centres unmarked) [Compound 180] | 100 to 1000 nM | 30 to 300 nM |
| 100 to 1000 nM | > 300 nM | O=C1CCC(N2Cc3ccc(COC(=O)Nc4c(F)ccc(Cl)c4F)cc3C2=O)C(=O)N1 (centres unmarked) [Compound 178, (2-(2,6-dioxopiperidin-3-yl)-3-oxoisoindolin-5-yl)methyl (3-chloro-2,6-difluorophenyl)carbamate] | – | – |
| 100 to 1000 nM | 30 to 300 nM | O=C1CCC(N2Cc3ccc(COC(=O)Nc4ccc(C5CCC5)cn4)cc3C2=O)C(=O)N1 (centres unmarked) [Compound 181, (2-(2,6-dioxopiperidin-3-yl)-3-oxoisoindolin-5-yl)methyl (5-cyclobutylpyridin-2-yl)carbamate] | – | – |
| < 100 nM | > 300 nM | CCc1ccc(F)c(NC(=O)OCc2ccc3c(c2)C(=O)N(C2CCC(=O)NC2=O)C3)c1 (centres unmarked) [Compound 210, (2-(2,6-dioxopiperidin-3-yl)-3-oxoisoindolin-5-yl)methyl (5-ethyl-2-fluorophenyl)carbamate] | – | – |
| < 100 nM | > 300 nM | O=C1CCC(N2Cc3ccc(COC(=O)Nc4cc(F)cc5c4OCC5)cc3C2=O)C(=O)N1 (centres unmarked) [Compound 187, (2-(2,6-dioxopiperidin-3-yl)-3-oxoisoindolin-5-yl)methyl(5-fluoro-2,3-dihydrobenzofuran-7-yl) carbamate] | – | – |
| 100 to 1000 nM | < 30 nM | Cc1cc(NC(=O)OCc2ccc3c(c2)C(=O)N(C2CCC(=O)NC2=O)C3)ccc1Cl (centres unmarked) [Compound 165, (2-(2,6-dioxopiperidin-3-yl)-3-oxoisoindolin-5-yl)methyl (4-chloro-3-methylphenyl)carbamate] | – | – |
| 100 to 1000 nM | > 300 nM | Cc1ccc(NC(=O)OCc2ccc3c(c2)C(=O)N(C2CCC(=O)NC2=O)C3)cc1 (centres unmarked) [Compound 162, (2-(2,6-dioxopiperidin-3-yl)-3-oxoisoindolin-5-yl)methyl p-tolylcarbamate] | – | – |
| 100 to 1000 nM | > 300 nM | Cc1cccc(NC(=O)OCc2ccc3c(c2)C(=O)N(C2CCC(=O)NC2=O)C3)c1 (centres unmarked) [Compound 160, (2-(2,6-dioxopiperidin-3-yl)-3-oxoisoindolin-5-yl)methyl m-tolylcarbamate] | – | – |
| 100 to 1000 nM | 30 to 300 nM | O=C1CCC(N2Cc3ccc(COC(=O)N[C@H]4C[C@H](c5ccccc5)C4)cc3C2=O)C(=O)N1 (some centres unmarked) [Compound 159, (2-(2,6-dioxopiperidin-3-yl)-3-oxoisoindolin-5-yl)methyl((1r,3r)-3-phenylcyclobutyl)carbamate] | – | – |

| Compound | IC50 (CRBN-DDB1; [1]) | DC50 (GSPT1; [2]) | IC50 (CRBN-DDB1) | DC50 (GSPT1; read-out: IF Class (GSPT1 degradation, DC50), 6 h) |
| --- | --- | --- | --- | --- |
| CC(C)(C)OC(=O)NC12CC(NC(=O)OCc3ccc4c(c3)C(=O)N(C3CCC(=O)NC3=O)C4)(C1)C2 (centres unmarked) [Compound 196, tert-butyl((2-(2,6-dioxopiperidin-3-yl)-3-oxoisoindolin-5-yl)methyl)bicyclo[1.1.1]pentane-1,3-diyldicarbamate] | < 100 nM | > 300 nM | – | – |
